The results in this text go back to US12559471B2, “1,5-dihydro-2,4-benzodiazepine-3-one derivative and application thereof” (JIANGSU NHWA PHARMACEUTICAL CO., LTD, priority 2020, dated 2026).

One test addresses 5-HT2C receptor (Rattus norvegicus (Rat), UniProt P08909).
The next test deals with 5-HT2A receptor (Homo sapiens (Human), UniProt P28223). Put plainly: Competitive 5-HT2A receptor binding assay (3H-Ketanserin, CHO-5-HT2A membrane). To be noted: for 2C/2A: ratio of 5-HT2C Ki to 5-HT2A Ki. As to the method: 1) Preparation of CHO-5-HT2A Receptor Membrane
The precipitate was collected, and the supernatant was discarded. The solution B was added into the precipitate. […] The supernatant was carefully discarded, and the solution B was added into the precipitate again. […] The precipitate obtained was stored at −80° C.
1) Competitive 5-HT2A Receptor Binding Assay
Step 2: 100 μL of the membrane preparation was added into each reaction tube.
After the filtration, the filter membrane was dried at 60° C. and added into a scintillation disc attached with a bottom membrane, which was then added with 40 μL of scintillation liquid, sealed with a top membrane, and left to stand.

For test [1], the system named is MK-801-induced high activity behavior of mice. Put plainly: Dizocilpine (MK-801)-induced high activity test in mice. The test is classed as in vivo. To be noted: Mus musculus, 1 h, intragastric, MK-801 0.3 mg/kg i.p., 60 min, read-out: ED50 for inhibiting the MK-801-induced high activity behavior. As to the method: 2. Dizocilpine (MK-801)-Induced High Activity Test in Mice 2.1 Test Method
Mice were stratified according to body weight and then randomly divided into a model control group, a blank control group and drug administration groups. After the administration of a test substance (or a control substance), the mice were placed into an autonomous activity test box (a black polyethylene box with the specification of 29 cm×29 cm×30 cm) for adaptation, and injected with MK-801 at 0.3 mg/kg intraperitoneally 1 h after the intragastric administration. The mice were then placed into the autonomous activity test box for video recording for 60 min. Video analysis was performed after the video recording to evaluate the activity of the mice.

Test [2] has as its system DOI-induced head shaking behavior of mice. Put plainly: DOI-induced head shaking (head thrust) test in mice. The test is classed as in vivo. To be noted: Mus musculus, intragastric, DOI 1 mg/kg i.p., 0-20 min, read-out: ED50 for inhibiting the DOI-induced head shaking behavior. The protocol: 1. Head Thrust Test in Mice
Mice were stratified according to body weight and then randomly divided into a model control group, a blank control group and drug administration groups. 1 h after the intragastric administration of a vehicle or a drug, the animals were placed in a beaker (with the diameter of 13 cm and the height of 19 cm) paved with fresh padding, and were injected with a modeling drug DOI ((±)-1-(2,5-dimethoxy-4-iodophenyl)-2-aminopropane hydrochloride or (±)-2,5-dimethoxy-4-iodoamphetamine hydrochloride) intraperitoneally at a dose of 1 mg/kg. The head shaking times of the mice during the 0-20 min after the intraperitoneal injection of DOI were recorded. The head shaking behavior is defined as a rapid rotational twitching or wet dog-like shaking of the mouse head, which is distinguished from normal grooming or exploring behavior.

[3] abbreviates: read-out: 5-HT2C (Ki value), rat cortex membrane, 3H-Mesulergine.
Where [4] appears, read: CHO-5-HT2A membrane, 3H-Ketanserin, read-out: 5-HT2A (Ki value).

Like-named read-outs stand apart in the source and are kept apart here.

5-HT2A receptor, sequence (P28223 whole entry): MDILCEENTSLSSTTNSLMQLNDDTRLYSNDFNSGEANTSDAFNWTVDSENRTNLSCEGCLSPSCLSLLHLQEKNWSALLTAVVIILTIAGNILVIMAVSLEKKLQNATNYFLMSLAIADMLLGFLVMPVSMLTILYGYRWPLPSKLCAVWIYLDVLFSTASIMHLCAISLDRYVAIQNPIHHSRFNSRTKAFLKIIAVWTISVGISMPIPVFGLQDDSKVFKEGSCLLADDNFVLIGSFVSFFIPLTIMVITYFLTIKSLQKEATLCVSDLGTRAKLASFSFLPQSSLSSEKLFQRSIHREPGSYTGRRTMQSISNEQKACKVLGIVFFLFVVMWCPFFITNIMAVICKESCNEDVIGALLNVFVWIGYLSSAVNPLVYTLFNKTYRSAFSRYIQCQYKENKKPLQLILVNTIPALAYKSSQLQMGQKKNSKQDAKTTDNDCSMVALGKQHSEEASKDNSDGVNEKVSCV
5-HT2C receptor, sequence (P08909 33-460): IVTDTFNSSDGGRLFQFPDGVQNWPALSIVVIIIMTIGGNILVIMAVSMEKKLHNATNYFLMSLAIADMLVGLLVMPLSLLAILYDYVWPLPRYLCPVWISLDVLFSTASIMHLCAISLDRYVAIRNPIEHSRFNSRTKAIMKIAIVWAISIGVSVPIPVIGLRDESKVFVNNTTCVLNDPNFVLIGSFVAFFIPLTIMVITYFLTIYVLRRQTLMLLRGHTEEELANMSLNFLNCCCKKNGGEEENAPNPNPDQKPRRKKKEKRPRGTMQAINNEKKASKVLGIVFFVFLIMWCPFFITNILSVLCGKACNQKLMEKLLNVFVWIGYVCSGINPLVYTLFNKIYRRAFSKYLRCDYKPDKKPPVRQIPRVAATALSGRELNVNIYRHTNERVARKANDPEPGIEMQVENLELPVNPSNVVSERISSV
Procedure for 5-HT2C receptor: 2) Preparation of 5-HT2C Membrane
The rat cortex was taken out of a refrigerator at −80° C. and thawed spontaneously. The solution A was added, and the mixture was homogenized for 3-4 s at 4th gear for a total of 4 times and centrifuged at 50000 g for 25 min at 4° C. The supernatant was discarded, and the solution A was added into the precipitate. The mixture was mixed well using a vortex mixer and centrifuged at 50000 g for 25 min at 4° C. (repeated twice). The supernatant was discarded after the centrifugation, and the precipitate was stored at −80° C. for later use.
2) Competitive 5-HT2C Receptor Binding Assay
Step 1: the prepared membrane was suspended in the homogenate B to obtain a 210 mg/mL membrane suspension for later use.
Step 2: 100 μL of the membrane suspension was added into each reaction tube.
Step 3: 100 μL of the solution B was added into a total binding tube (TB), 100 μL of Ketanserin (final concentration: 1.0×10^−5 M) was added into a non-specific binding tube (NB), and 100 μL of test compound was added into each compound binding tube (CB).
Step 4: 10 μL of radioligand ^3H-Mesulergine was added into each reaction tube to reach a final concentration of 3 nM.
Step 5: each reaction tube was incubated at 37° C. for 25 min. After the reaction was completed, the binding ligands were rapidly filtered under reduced pressure, wherein the Whatman test paper GF/C was washed with 0.5% PEI solution 1 h in advance. The filter membrane was fully washed with cold Tris buffer solution, taken out and put into a 4 mL scintillation disc, which was then added with 1 mL toluene scintillation solution and shaken for mixing well.
Step 6: the scintillation disc was put into a liquid scintillation counter for counting.

In the case of `CC(C)CNc1ccc(CN2Cc3ccc(F)cc3CN(C3CCN(C)CC3)C2=O)cc1` [NH-K-A19007, 8-fluoro-2-(1-methylpiperidin-4-yl)-4-[[4-(2-methylpropylamino)phenyl]methyl]-1,5-dihydro-2,4-benzodiazepine-3-one], the Ki on 5-HT2C receptor (setting [3]) is 27.3 nM; on 5-HT2A receptor (setting [4]), 2.72 nM. The 2C/2A at 5-HT2A receptor amounted to 10.040.

For `CC(C)Cc1ccc(CN2Cc3ccc(F)cc3CN(C3CCN(C)CC3)C2=O)cc1` [NH-K-A19008, 8-fluoro-2-(1-methylpiperidin-4-yl)-4-[[4-(2-methylpropyl)phenyl]methyl]-1,5-dihydro-2,4-benzodiazepine-3-one], the inhibitory constant (Ki) on 5-HT2C receptor (setting [3]) is 42.4 nM; on 5-HT2A receptor (setting [4]), 5.29 nM. Besides, the 2C/2A at 5-HT2A receptor was 7.999.

On to `COc1ccc(CN2Cc3ccc(F)cc3CN(C3CCN(C)CC3)C2=O)cc1` [NH-K-A19009, 8-fluoro-2-(1-methylpiperidin-4-yl)-4-[(4-methoxyphenyl)methyl]-1,5-dihydro-2,4-benzodiazepine-3-one], for which the results for the inhibition constant Ki on 5-HT2C receptor (setting [3]) and on 5-HT2A receptor (setting [4]) were 2.03 nM and 2.99 nM, respectively. Further, at 5-HT2A receptor, the 2C/2A is reported as 0.679.

Consider `CN1CCC(N2Cc3cc(F)ccc3CN(Cc3ccc(CC(C)(C)O)cc3)C2=O)CC1` [NH-K-A19010, 7-fluoro-2-[[4-(2-hydroxy-2-methylpropyl)phenyl]methyl]-4-(1-methylpiperidin-4-yl)-1,5-dihydro-2,4-benzodiazepin-3-one], for which the Ki worked out at 18.2 nM at 5-HT2C receptor (setting [3]) and 20.1 nM on 5-HT2A receptor (setting [4]). Moreover, the 2C/2A at 5-HT2A receptor is 0.91.

Regarding `CC(C)Oc1ccc(CN2Cc3ccc(F)cc3CN(C3CCN(C)CC3)C2=O)c(F)c1` [NH-K-A19011, 8-fluoro-2-(1-methylpiperidin-4-yl)-4-[[(2-fluoro-4-isopropoxy)phenyl]methyl]-1,5-dihydro-2,4-benzodiazepine-3-one], the Ki at 5-HT2A receptor (setting [4]) was found to be 12.7 nM.

In the case of `CC(C)Oc1ccc(CN2Cc3ccc(F)cc3CN(C3CCN(C)CC3)C2=O)cc1F` [NH-K-A19012, 8-fluoro-2-(1-methylpiperidin-4-yl)-4-[[(3-fluoro-4-isopropoxy)phenyl]methyl]-1,5-dihydro-2,4-benzodiazepine-3-one], the median effective dose (ED50) in test [1] came to 3.73 mg/kg; in test [2], 0.3 mg/kg. In addition, the Ki on 5-HT2C receptor (setting [3]) was found to be 9.36 nM; on 5-HT2A receptor (setting [4]) it was 0.947 nM. Besides, the 2C/2A on 5-HT2A receptor stood at 9.882.

As to `CC(C)Oc1ccc(CN2Cc3ccc(F)cc3CN(C3CCN(C)CC3)C2=O)cn1` [NH-K-A19013, 8-fluoro-2-(1-methylpiperidin-4-yl)-4-[[(6-isopropoxy)pyridin-3-yl]methyl]-1,5-dihydro-2,4-benzodiazepine-3-one], the Ki on 5-HT2A receptor (setting [4]) is 9.78 nM.

For `CC(C)COc1ccc(CN2Cc3ccc(F)cc3CN([C@H]3CCN(C)C[C@H]3F)C2=O)cc1` [NH-K-A19014-0, (3R,4S)-8-fluoro-2-(1-methyl-3-fluoropiperidin-4-yl)-4-[[4-(2-methylpropoxy)phenyl]methyl]-1,5-di hydro-2,4-benzodiazepine-3-one], the inhibition constant (Ki) on 5-HT2C receptor turned out to be 0.2 nM; at 5-HT2A receptor (setting [4]), 4.19 nM. On 5-HT2A receptor, the 2C/2A is on record as 0.049.

Consider `CC(C)COc1ccc(CN2Cc3ccc(F)cc3CN([C@H]3CCN(C)C[C@@H]3F)C2=O)cc1` [NH-K-A19014-0A, (3S,4S)-8-fluoro-2-(1-methyl-3-fluoropiperidin-4-yl)-4-[[4-(2-methylpropoxy)phenyl]methyl]-1,5-dihydro-2,4-benzodiazepine-3-one], for which the Ki on 5-HT2C receptor turned out to be 26.1 nM; at 5-HT2A receptor (setting [4]), 0.002 nM. For the same compound, the 2C/2A on 5-HT2A receptor amounted to 16029.47.

As to `CC(C)COc1ccc(CN2Cc3ccc(F)cc3CN(C3CCN(C)C3)C2=O)cc1` (stereo not drawn) [NH-K-A19015], the Ki at 5-HT2C receptor turned out to be 0.41 nM; at 5-HT2A receptor, 1.69 nM.

With `CC(C)COc1ccc(CN2Cc3ccc(F)cc3CC3(CCN(C)CC3)C2=O)cc1` [NH-K-A19019, 7-fluoro-1′-methyl-2-[[4-(2-methylpropoxy)phenyl]methyl]-1,2-dihydrospiro[benzo[c]azepine-4,4′-piperidine]-3(5H)-one], the inhibitory constant (Ki) on 5-HT2A receptor (setting [4]) amounted to 53.3 nM.

Consider `CC(C)COc1ccc(CN2Cc3ccccc3CN(C3CCN(C)CC3)C2=O)cc1` [NH-K-A19020, 2-(1-methylpiperidin-4-yl)-4-[[4-(2-methylpropoxy)phenyl]methyl]-1,5-dihydro-2,4-benzodiazepine-3-one], for which the Ki on 5-HT2A receptor (setting [4]) turned out to be 1.74 nM.

Regarding `CN1CCC(N2Cc3ccc(F)cc3CN(Cc3ccc(OC4CC4)cc3)C2=O)CC1` [NH-K-A19022, 4-[(4-cyclopropoxyphenyl)methyl]-7-fluoro-2-(1-methylpiperidin-4-yl)-1,5-dihydro-2,4-benzodiaze pine-3-one], the inhibitory constant (Ki) on 5-HT2C receptor (setting [3]) is 1.33 nM; on 5-HT2A receptor (setting [4]) it was 0.15 nM. In addition, on 5-HT2A receptor, the 2C/2A was determined as 8.76.

On to `CC(C)COc1ccc(CN2Cc3cc(F)c(F)cc3CN(C3CCN(C)CC3)C2=O)cc1` [NH-K-A20001, 7,8-difluoro-2-(4-isobutoxybenzyl)-4-(1-methylpiperidin-4-yl)-1,2,4,5-tetrahydro-3H-benzo[e][1,3]diazepin-3-one], for which, at 5-HT2A receptor (setting [4]), the inhibitory constant (Ki) was determined as 5.98 nM.

Take `CC(C)COc1ccc(CN2Cc3cc(Cl)ccc3CN(C3CCN(C)CC3)C2=O)cc1` [NH-K-A190017, 7-chloro-2-(1-methylpiperidin-4-yl)-4-[[4-(2-methylpropoxy)phenyl]methyl]-1,5-dihydro-2,4-benzo diazepine-3-one]: the Ki on 5-HT2C receptor (setting [3]) worked out at 486 nM; on 5-HT2A receptor (setting [4]), 1.63 nM. Besides, the 2C/2A at 5-HT2A receptor is reported as 298.694.

What is called Ki is the equilibrium dissociation constant of an inhibitor or competing ligand from its target. The ED50 is the dose at which the effect has come halfway, by size or by number of responders.
